The structures appear in SMILES notation. ≈ marks a conversion by molar mass, not a printed value.

Assay in all cases: Minimum inhibitory concentration, standard serial dilution method, nutrient agar
Assay type in all cases: cell-based

For test [1], the system named is Escherichia coli K12 JR66/W677. The following applies: K12JR66/W677, 18 h, read-out: Minimum Inhibitory Concentration. The text has this:
(§1) 3'-Deoxyneamine, 3'-deoxy-6'-N-methylneamine, 3'-deoxyribostamycin, 3'-deoxy-6'-N-methylribostamycin, 3'-deoxykanamycin B, 3'-deoxy-6'-N-methylkanamycin B and 3'-deoxyparomamine which are produced by the process of this invention have been confirmed to be identical to their authentic samples, respectively, by making comparison between their n.m.r. spectra (in D2 O), mass spectra of their derivatives, thin layer chromatography on silica gel (developed with 4:5:2:5 n-butanolethanol-chloroform-17% aqueous ammonia) and antibacterial spectra. […] These 3'-deoxy derivatives are of low toxicity similarly to their parent substances and are useful for the therapeutic treatment of infections by gram-positive and gram-negative bacteria. 3'-Deoxyparomamine is useful as an intermediate for synthesis of any valuable derivative of aminoglycosidic antibiotics. The minimum inhibitory concentrations (mcg/ml) of these 3'-deoxy derivatives against various microorganisms were determined according to a standard serial dilution method using nutrient agar incubation medium at 37° C, the estimation being effected after 18 hours incubation.

Test [2] relates to Staphylococcus aureus FDA 209P. The following applies: FDA209P, 18 h, read-out: Minimum Inhibitory Concentration.
From the text: as §1

Test [3] relates to Escherichia coli K12 W677. As to conditions: K12W677, 37° C, 18 hours.
From the text: as §1

In test [4] the test system is Escherichia coli K12 ML1629. The following applies: K12ML1629, 18 h, read-out: Minimum Inhibitory Concentration.
From the text: as §1

The test system of test [5] is Pseudomonas aeruginosa No.12. As to conditions: NO.12, 18 h, read-out: Minimum Inhibitory Concentration.
From the text: as §1

Test [6] relates to Escherichia coli K12 ML1410. As to conditions: K12ML1410, 18 h, read-out: Minimum Inhibitory Concentration.
From the text: as §1

The test system of the next test is Escherichia coli K12. As to conditions: K12, 18 h, read-out: Minimum Inhibitory Concentration.
From the text: as §1

For test [7], the system named is Escherichia coli K12 LA290 R55. As to conditions: K12LA290R55, 18 h, read-out: Minimum Inhibitory Concentration.
From the text: as §1

Test [8] relates to Pseudomonas aeruginosa A3. As to conditions: A3, 18 h, read-out: Minimum Inhibitory Concentration.
From the text: as §1

Test [9] concerns Pseudomonas aeruginosa GN315. The following applies: GN315, 18 h, read-out: Minimum Inhibitory Concentration.
From the text: as §1

With `CNC[C@H]1O[C@H](O[C@H]2[C@H](O)[C@@H](O[C@H]3O[C@H](CO)[C@@H](O)[C@H](N)[C@H]3O)[C@H](N)C[C@@H]2N)[C@H](N)C[C@@H]1O` [3'-Deoxy-6'-N-methylkanamycin B, 3'-deoxy-6'-N-methylkanamycin B], the MIC in [1] was 50 µg/mL (≈ 104 µM); in [2], 1.56 µg/mL (≈ 3.24 µM); in test [3] it was 1.56 µg/mL (≈ 3.24 µM); in [4], 1.56 µg/mL (≈ 3.24 µM); in [5] it was 0.78 µg/mL (≈ 1.62 µM); in [6] it was 1.56 µg/mL (≈ 3.24 µM). Besides, the MIC amounted to 0.78 µg/mL (≈ 1.62 µM) in the test on Escherichia coli K12, 50 µg/mL (≈ 104 µM) in [7], 0.78 µg/mL (≈ 1.62 µM) in [8] and 6.25 µg/mL (≈ 13 µM) in test [9].
For `N[C@@H]1C[C@H](O)[C@@H](CO)O[C@@H]1O[C@H]1[C@H](O)[C@@H](O)[C@H](N)C[C@@H]1N` [3'-Deoxyparomamine, 3'-deoxyparomamine], the MIC was over 100 µg/mL in test [1]; 50 µg/mL (≈ 163 µM) in test [2]; over 100 µg/mL in test [3]; 100 µg/mL (≈ 325 µM) in [4]; over 100 µg/mL in test [5]; over 100 µg/mL in test [6]. Moreover, the MIC in the test with Escherichia coli K12 was 100 µg/mL (≈ 325 µM); in test [7] it was 50 µg/mL (≈ 163 µM); in [8], over 100 µg/mL; in test [9], over 100 µg/mL.
For `NC[C@H]1O[C@H](O[C@H]2[C@H](O)[C@@H](O)[C@H](N)C[C@@H]2N)[C@H](N)C[C@@H]1O` [3'-Deoxyneamine, 3'-deoxyneamine], the MIC in test [1] is over 100 µg/mL; in test [2], 3.12 µg/mL (≈ 10.2 µM); in [3], 6.25 µg/mL (≈ 20.4 µM); in [4], 6.25 µg/mL (≈ 20.4 µM); in test [5] it was 6.25 µg/mL (≈ 20.4 µM); in test [6], 6.25 µg/mL (≈ 20.4 µM). For the same compound, the MIC with Escherichia coli K12 was 6.25 µg/mL (≈ 20.4 µM); in test [7] it was 100 µg/mL (≈ 326 µM); in test [8] it was 6.25 µg/mL (≈ 20.4 µM); in test [9], over 100 µg/mL.
For `NC[C@H]1O[C@H](O[C@H]2[C@H](O)[C@@H](O[C@H]3O[C@H](CO)[C@@H](O)[C@H](N)[C@H]3O)[C@H](N)C[C@@H]2N)[C@H](N)C[C@@H]1O` [3'-Deoxykanamycin B, 3'-deoxykanamycin B], the MIC was determined as 50 µg/mL (≈ 107 µM) in test [1]; 0.78 µg/mL (≈ 1.67 µM) in test [2]; 1.56 µg/mL (≈ 3.34 µM) in test [3]; 0.78 µg/mL (≈ 1.67 µM) in [4]; 0.78 µg/mL (≈ 1.67 µM) in test [5]; 0.78 µg/mL (≈ 1.67 µM) in [6]. Moreover, the MIC in the test on Escherichia coli K12 worked out at 0.78 µg/mL (≈ 1.67 µM); in test [7] it was 50 µg/mL (≈ 107 µM); in [8], 0.78 µg/mL (≈ 1.67 µM); in test [9], 100 µg/mL (≈ 214 µM).
Regarding `NC[C@H]1O[C@H](O[C@H]2[C@H](O[C@@H]3O[C@H](CO)[C@@H](O)[C@H]3O)[C@@H](O)[C@H](N)C[C@@H]2N)[C@H](N)C[C@@H]1O` [3'-Deoxyribostamycin, 3'-deoxyribostamycin], the MIC in test [1] is over 100 µg/mL; in test [2] it was 6.25 µg/mL (≈ 14.3 µM); in test [3] it was 3.12 µg/mL (≈ 7.12 µM); in test [4], over 100 µg/mL; in [5] it was 3.12 µg/mL (≈ 7.12 µM); in [6] it was 6.25 µg/mL (≈ 14.3 µM). For the same compound, the MIC with Escherichia coli K12 was 6.25 µg/mL (≈ 14.3 µM); in test [7], over 100 µg/mL; in test [8], 3.12 µg/mL (≈ 7.12 µM); in test [9], over 100 µg/mL.

These data come from patent publication US4060682A, “Process for the synthetic production of 3-deoxy derivative of an aminoglycosidic antibiotic” (priority 1974, dated 1977).
